From patent US7115649B2, “Methods of treating skin disorders using thio-oxindole derivatives” (Wyeth, priority 2002, dated 2006)

What was measured:
[1] = target: T1, androgen receptor (AR) (Mus musculus, UniProt P19091); assay: Androgen receptor agonistic and antagonistic activity, PRE-tk-luciferase reporter in L929 cells; type: cell-based
T1 construct: in the L929 cells which express the AR but not the PR; endogenous in cells; host or cells: L929 cells
T1 sequence (P19091 1-899): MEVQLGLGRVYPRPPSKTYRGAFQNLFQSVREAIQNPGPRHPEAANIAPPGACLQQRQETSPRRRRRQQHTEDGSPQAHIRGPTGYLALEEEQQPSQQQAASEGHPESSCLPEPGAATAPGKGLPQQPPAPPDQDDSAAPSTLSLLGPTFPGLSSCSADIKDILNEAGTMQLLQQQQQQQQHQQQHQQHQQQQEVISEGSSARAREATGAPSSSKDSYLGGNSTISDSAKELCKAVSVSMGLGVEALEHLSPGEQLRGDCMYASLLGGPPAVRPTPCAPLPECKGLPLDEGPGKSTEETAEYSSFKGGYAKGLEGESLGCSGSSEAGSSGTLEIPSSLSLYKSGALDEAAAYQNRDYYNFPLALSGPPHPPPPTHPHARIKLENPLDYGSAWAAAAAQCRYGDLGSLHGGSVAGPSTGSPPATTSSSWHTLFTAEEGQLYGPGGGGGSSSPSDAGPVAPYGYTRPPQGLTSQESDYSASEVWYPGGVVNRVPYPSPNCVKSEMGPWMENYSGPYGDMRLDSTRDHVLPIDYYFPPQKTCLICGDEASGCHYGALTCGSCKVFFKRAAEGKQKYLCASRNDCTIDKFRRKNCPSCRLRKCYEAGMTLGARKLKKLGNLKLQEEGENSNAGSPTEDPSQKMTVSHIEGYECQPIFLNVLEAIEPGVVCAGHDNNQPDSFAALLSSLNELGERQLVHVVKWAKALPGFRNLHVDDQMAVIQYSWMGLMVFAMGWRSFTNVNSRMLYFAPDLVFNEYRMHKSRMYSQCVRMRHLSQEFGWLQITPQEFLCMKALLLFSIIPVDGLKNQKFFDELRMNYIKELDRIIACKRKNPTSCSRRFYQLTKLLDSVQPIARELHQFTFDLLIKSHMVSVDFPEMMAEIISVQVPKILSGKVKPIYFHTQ
Method: The androgen receptor (AR) agonistic and antagonistic activity of the compositions of the invention in the L929 cells which express the AR but not the PR was evaluated as described in Zhang et al., Steroids, 65(10–11): 637–643 (October–November 2000).
Cells were plated in 96-well plates at 25,000 cells/well in DMEM (BioWhittaker) with 10% (v/v) fetal bovine serum (FBS). The next day, cells were infected with the adenovirus PRE-tk-luciferase reporter construct (2×10^9 pfu/ml particles) and kept in DMEM containing 10% charcoal stripped FBS for an additional 24 hours. […] To test the anti-androgenic activity, cells were co-treated with 3 nM DHT. Luciferase activity was measured 24 hours following the treatment.

[2] = test system: eczema; assay: Conditioning the skin of a human patient with severe eczema; type: in vivo; conditions: about 50 mg daily
Method: A human patient having a severe form of eczema is treated according to the present invention. Specifically, about 50 mg of 5′-(5-Cyano-1-methyl-1H-pyrrol-2-yl)spiro[cyclohexane-1,3′-[3H]indol]-2′-ylidenecyanamide is delivered to the patient daily.

[3] = test system: acne vulgaris; assay: Treatment of acne in a human patient, oral tablet daily; type: in vivo; conditions: about 20 mg tablet orally daily
Method: A human patient having acne vulgaris is treated according to the present invention. Specifically, 5-(5-Cyano-1-methyl-1H-pyrrol-2-yl)spiro[cyclohexane-1,3′-[3H]indol]-2′-ylidenecyanamide is orally delivered to the patient daily. Delivery is in the form of a tablet formulated to contain about 20 mg of 5′-(5-Cyano-1-methyl-1H-pyrrol-2-yl)spiro[cyclohexane-1,3′-[3H]indol]-2′-ylidenecyanamide.

- agonistic activity ([1]; at the maximum concentration tested (10 nM)): only marginal agonistic activity
- IC50 ([1]; co-treated with 3 nM DHT, luciferase activity 24 hours after treatment, read-out: IC50 (anti-androgenic activity)): 313 nM
- antagonistic activity ([1]; nine point dose response, co-treated with 3 nM DHT): significant antagonistic activity
SMILES: Cn1c(C#N)ccc1-c1ccc2c(c1)C1(CCCCC1)C(=NC#N)N2 [5′-(5-Cyano-1-methyl-1H-pyrrol-2-yl)spiro[cyclohexane-1,3′-[3H]indol]-2′-ylidenecyanamide]
- eczema ([2]; after about 12 weeks): improvement in the eczema is observed
- dryness of the skin ([2]; thirty days after the treatment): a decrease in the dryness affected to the skin is noticed
- acne vulgaris ([3]; after about 24 weeks): improvement in the acne vulgaris is observed
- presence of lesions caused by acne vulgaris ([3]; forty-five to sixty days after the treatment): a decrease in the presence of lesions caused by acne vulgaris is noticed
